Results taken from patent publication US5036059A, “1,4-Dihydropyridine-3-carboxylate derivatives” (Nippon Shinyaku Company, Limited, priority 1984, dated 1991).
Counter-ions that a name gives are not always drawn.

Columns and labels:
[1] = tested on: spontaneously hypertensive rats; experiment: Hypotensive action in spontaneously hypertensive rats, systolic arterial blood pressure by tail plethysmography, oral; format: in vivo
Description: (§1) Hypotensive action of diltiazem (which is a known hypotensive drug) measured by the same method at the doses of 3, 10 and 30 mg/kg were 0, 11.2 and 33.0%, respectively. Hypotensive action of the compound of Example 4 which is one of the most representative compounds of this invention was tested using spontaneously hypertensive rats and was compared with those of Nifedipine and Diltiazem hydrochloride. The method applied was that the drugs were orally given to the rats of which systolic arterial blood pressure were higher than 180 mmHg when it was measured plethysmographically using tail arteries. (Table 3)
Doses in mg/kg (p.o.) are as follows: *0.3 (1.0); **1.0 (3.0); ***30.

[2] = tested on: rats (with normal blood pressure); experiment: Hypotensive action, mean blood pressure of femoral artery in unanesthetized normotensive rats, oral; format: in vivo; conditions: Rattus norvegicus, read-out: % Decreases in Mean Blood Pressure [at peak effect]; for inhibition in vivo at 1 mg/kg: 1 mg/kg oral; for inhibition in vivo at 3 mg/kg: 3 mg/kg oral; for inhibition in vivo at 10 mg/kg: 10 mg/kg oral
Description: Blood pressure of femoral artery of rats (with normal blood pressure) under unanesthetized condition was measured directly using a pressure tranducer.
The present invention compounds were given orally at doses of 1, 3 and 10 mg/kg, and changes in blood pressure were continuously recorded. Percent decreases of mean blood pressure at the peak effect were calculated. The maximum changes in mean blood pressure (%) were shown as "hypotensive action" (Table 2).
as §1

guinea pig heart = experiment: Coronary vasodilating action, constant pressure perfusion of isolated guinea pig heart (Langendorff); conditions: Cavia porcellus, via coronary artery; for activation at 0.001 mg: 10^-6 gram/heart; for activation at 0.001 mg / activation at 0.0001 mg: read-out: Perfusion Increasing Rate; for activation at 0.0001 mg: 10^-7 gram/heart
Description: Constant pressure perfusion samples of guinea pig heart isolated by a method according to Langendorff were treated with the present invention compounds by administration via coronary artery and the effect was examined (Table 1).
With reference to coronary vasodilating action of diltiazem measured by the same method, the increasing rates in perfusion by administration of 10^-7, 10^-6 and 10^-5 gram/heart were 4, 16 and 55%, respectively.

[3] = 0.5 hr after administration, 1.0 mg/kg p.o.
[4] = 1 hr after administration, 1.0 mg/kg p.o.
[5] = 2 hr after administration, 1.0 mg/kg p.o.
[6] = 3 hr after administration, 1.0 mg/kg p.o.
[7] = 5 hr after administration, 1.0 mg/kg p.o.
[8] = 8 hr after administration, 1.0 mg/kg p.o.
[9] = 12 hr after administration, 1.0 mg/kg p.o.
[10] = before administration, 1.0 mg/kg p.o.

## COc1ccc([C@@H]2Sc3ccccc3N(CCN(C)C)C(=O)[C@@H]2OC(C)=O)cc1 [Diltiazem.HCl]
[1]; 0.5 hr after administration, 30 mg/kg p.o.
  systolic arterial blood pressure: 153.6 ± 5.4
[1]; 1 hr after administration, 30 mg/kg p.o.
  systolic arterial blood pressure: 141.8 ± 10.8
[1]; 2 hr after administration, 30 mg/kg p.o.
  systolic arterial blood pressure: 156.2 ± 8.8
[1]; 3 hr after administration, 30 mg/kg p.o.
  systolic arterial blood pressure: 170.5 ± 4.8
[1]; 5 hr after administration, 30 mg/kg p.o.
  systolic arterial blood pressure: 183.2 ± 2.8
[1]; 8 hr after administration, 30 mg/kg p.o.
  systolic arterial blood pressure: 189.3 ± 4.6
[1]; 12 hr after administration, 30 mg/kg p.o.
  systolic arterial blood pressure: 188.5 ± 2.0
[1]; before administration, 30 mg/kg p.o.
  systolic arterial blood pressure: 191.2 ± 5.4

## COC(=O)C1=C(C)NC(C)=C(P2(=O)OCCCO2)C1c1ccccc1[N+](=O)[O-] (centres unmarked) [Example 4, Methyl 2,6-dimethyl-4-(2-nitrophenyl)-5-(2-oxo-1,3,2-dioxaphosphorinan-2-yl)-1,4-dihydropyridine-3-carboxylate]
[2]
  inhibition in vivo at 1 mg/kg: 42.6%
  inhibition in vivo at 3 mg/kg: 39%
  inhibition in vivo at 10 mg/kg: 41.9%
[1]; 0.5 hr after administration, 0.3 mg/kg p.o.
  systolic arterial blood pressure: 126.0 ± 3.9
[1]; [3]
  systolic arterial blood pressure: 87.7 ± 4.9
[1]; 1 hr after administration, 0.3 mg/kg p.o.
  systolic arterial blood pressure: 124.0 ± 3.3
[1]; [4]
  systolic arterial blood pressure: 90.2 ± 6.3
[1]; 2 hr after administration, 0.3 mg/kg p.o.
  systolic arterial blood pressure: 134.2 ± 4.3
[1]; [5]
  systolic arterial blood pressure: 103.2 ± 7.3
[1]; 3 hr after administration, 0.3 mg/kg p.o.
  systolic arterial blood pressure: 152.5 ± 4.0
[1]; [6]
  systolic arterial blood pressure: 133.3 ± 5.3
[1]; 5 hr after administration, 0.3 mg/kg p.o.
  systolic arterial blood pressure: 156.8 ± 8.3
[1]; [7]
  systolic arterial blood pressure: 150.7 ± 7.7
[1]; 8 hr after administration, 0.3 mg/kg p.o.
  systolic arterial blood pressure: 158.3 ± 7.2
[1]; [8]
  systolic arterial blood pressure: 152.8 ± 6.5
[1]; 12 hr after administration, 0.3 mg/kg p.o.
  systolic arterial blood pressure: 170.7 ± 5.4
[1]; [9]
  systolic arterial blood pressure: 165.3 ± 6.1
[1]; 24 hr after administration, 0.3 mg/kg p.o.
  systolic arterial blood pressure: 195.3 ± 5.9
[1]; 24 hr after administration, 1.0 mg/kg p.o.
  systolic arterial blood pressure: 187.7 ± 7.5
[1]; before administration, 0.3 mg/kg p.o.
  systolic arterial blood pressure: 185.2 ± 5.4
[1]; [10]
  systolic arterial blood pressure: 193.0 ± 6.5

## CC1=C(C(=O)OCCN(C)Cc2ccccc2)C(c2ccccc2C(F)(F)F)C(P2(=O)OCCCO2)=C(C)N1 (centres unmarked) [Example 52]
Guinea pig heart
  activation at 0.001 mg: 62%
  activation at 0.0001 mg: 10%
[2]
  inhibition in vivo at 1 mg/kg: 18.4%
  inhibition in vivo at 3 mg/kg: 37.2%
  inhibition in vivo at 10 mg/kg: 42.8%

## COC(=O)C1=C(C)NC(C)=C(P2(=O)OCCCO2)C1c1ccccc1OC(F)F (centres unmarked) [Example 53, Methyl 4-(2-difluoromethoxyphenyl)-2,6-dimethyl-5-(2-oxo-1,3,2-dioxaphosphorinan-2-yl)-1,4-dihydropyridine-3-carboxylate]
Guinea pig heart
  activation at 0.001 mg: 25%
  activation at 0.0001 mg: 16%
[2]
  inhibition in vivo at 1 mg/kg: 24.5%
  inhibition in vivo at 3 mg/kg: 45.4%
  inhibition in vivo at 10 mg/kg: 49.7%

## CC1=C(C(=O)OCCN(C)Cc2ccccc2)C(c2cccc(Cl)c2Cl)C(P2(=O)OCC(C)(C)CO2)=C(C)N1 (centres unmarked) [Example 59, 2-(N-Benzyl-N-methylamino)-ethyl 4-(2,3-dichlorophenyl)-2,6-dimethyl-5-(5,5-dimethyl-2-oxo-1,3,2-dioxaphosphorinan-2-yl)-1,4-dihydropyridine-3-carboxylate]
Guinea pig heart
  activation at 0.001 mg: 33%
  activation at 0.0001 mg: 24%
[2]
  inhibition in vivo at 1 mg/kg: 7.1%
  inhibition in vivo at 3 mg/kg: 29.1%
  inhibition in vivo at 10 mg/kg: 35.1%

## CC1=C(C(=O)OCCN(C)Cc2ccccc2)C(c2ccccc2C(F)(F)F)C(P2(=O)OCC(C)(C)CO2)=C(C)N1 (centres unmarked) [Example 62, 2-(N-Benzyl-N-methylamino)-ethyl 2,6-dimethyl-5-(5,5-dimethyl-2-oxo-1,3,2-dioxaphosphorinan-2-yl)-4-(2-trifluoromethylphenyl)-1,4-dihydropyridine-3-carboxylate]
Guinea pig heart
  activation at 0.001 mg: 70%
  activation at 0.0001 mg: 19%
[2]
  inhibition in vivo at 1 mg/kg: 10.6%
  inhibition in vivo at 3 mg/kg: 37.4%
  inhibition in vivo at 10 mg/kg: 48.3%

## COC(=O)C1=C(C)NC(C)=C(C(=O)OC)C1c1ccccc1[N+](=O)[O-] [Nifedipine, dimethyl 2,6-dimethyl-4-(2-nitrophenyl)-1,4-dihydropyridine-3,5-dicarboxylate]
[1]; [3]
  systolic arterial blood pressure: 139.3 ± 6.9
[1]; 0.5 hr after administration, 3.0 mg/kg p.o.
  systolic arterial blood pressure: 112.8 ± 6.0
[1]; [4]
  systolic arterial blood pressure: 161.3 ± 4.1
[1]; 1 hr after administration, 3.0 mg/kg p.o.
  systolic arterial blood pressure: 125.8 ± 4.4
[1]; [5]
  systolic arterial blood pressure: 183.5 ± 10.0
[1]; 2 hr after administration, 3.0 mg/kg p.o.
  systolic arterial blood pressure: 148.7 ± 9.9
[1]; [6]
  systolic arterial blood pressure: 188.3 ± 5.8
[1]; 3 hr after administration, 3.0 mg/kg p.o.
  systolic arterial blood pressure: 176.8 ± 2.6
[1]; [7]
  systolic arterial blood pressure: 187.2 ± 5.3
[1]; 5 hr after administration, 3.0 mg/kg p.o.
  systolic arterial blood pressure: 183.8 ± 6.0
[1]; [8]
  systolic arterial blood pressure: 190.9 ± 4.8
[1]; 8 hr after administration, 3.0 mg/kg p.o.
  systolic arterial blood pressure: 188.5 ± 2.9
[1]; [9]
  systolic arterial blood pressure: 190.3 ± 5.5
[1]; 12 hr after administration, 3.0 mg/kg p.o.
  systolic arterial blood pressure: 190.0 ± 7.0
[1]; [10]
  systolic arterial blood pressure: 194.8 ± 2.1
[1]; before administration, 3.0 mg/kg p.o.
  systolic arterial blood pressure: 189.0 ± 5.1

## COc1ccc([C@@H]2Sc3ccccc3N(CCN(C)C)C(=O)[C@@H]2OC(C)=O)cc1 [diltiazem, reference compound]
Guinea pig heart; 10^-5 gram/heart, read-out: increasing rate in perfusion
  activation at 1e-05 g/heart, 1e-05 g/heart: 55%
Guinea pig heart
  activation at 0.001 mg: 16%
  activation at 0.0001 mg: 4%
[2]
  inhibition in vivo at 3 mg/kg: 0%
  inhibition in vivo at 10 mg/kg: 11.2%
[2]; 30 mg/kg oral
  inhibition in vivo at 30 mg/kg: 33%
